Read-outs that look alike come from different tables or passages of the source.
Columns and labels:
Assay type in all cases: cell-based
[1] = tested on: THP-1 cells; test: Lectin staining for fucose expression inhibition, THP-1 cells; conditions: 3 days, 0-512 μM compound, flow cytometry
Procedure: (§1) THP-1 cells (TIB-202, ATCC) and Jurkat cells (TIB-152, ATCC) were cultured in RPMI-1640 medium containing 2 mM Glutamine and 25 mM HEPES (Gibco™, Life Technologies), supplemented with 10% v/v heat-inactivated fetal bovine serum (FBS) (Gibco™, Life Technologies) and 1× antibiotic-antimycotic solution (100 units/mL of penicillin, 100 μg/mL of streptomycin, and 0.25 μg/mL Fungizone) (Gibco™, Life Technologies) and passaged every 3-4 day by seeding a fraction of 0.5-2 min cells of the culture per 10 ml medium. EL-4 cells (TIB-39, ATCC) were cultured in DMEM medium (Gibco™, Life Technologies), supplemented with 10% v/v heat-inactivated fetal bovine serum (FBS) (Gibco™, Life Technologies), 1× antibiotic-antimycotic solution (100 units/mL of penicillin, 100 μg/mL of streptomycin, and 0.25 μg/mL Fungizone) (Gibco™, Life Technologies) and 2 mM Glutamine (Gibco™, Life Technologies) and passaged every 2-4 days by seeding a fraction of 0.5-1 min cells of the culture per 10 ml medium. For passaging a T75 flask (Corning), medium was removed and the monolayer was washed with 10 ml PBS pH 7.2 without CaCl2) and MgCl2 (Gibco™, Life Technologies) before adding 3.5 ml 0.05% trypsin/EDTA solution (Gibco™ 5 Life Technologies) in PBS. Cells were incubated at rt for 30-45 s after which the trypsin/EDTA-solution was removed. Cells were incubated for an additional 2 min at 37° C., 5.0% CO2 and resuspended in cell culture medium. Cells were then seeded at ˜40.000 cells/cm^2 in new culture flasks. All cells were cultured at 37° C., 5% CO2 in a humidified incubator.
(§2) Protocol below was repeated until n>=3 for each compounds using cells at different passage numbers. Cells were cultured in medium containing different concentrations of unnatural sugar derivatives on either 24-wells plates (adherent cell lines; 80,000 cells per well) (Corning) or 96-wells plates (suspension cell lines; 13,000-20,000 cells per well) (Thermo Scientific). DMSO, at same dilution as the unnatural sugar derivative stock solutions, was used as a positive control for lectin staining; P-Fuc2F was used for all concentrations as negative control. Cells were incubated for three days at 37° C. and 5% CO2 in a humidified incubator. Cells were harvested and washed with 100 μl 1×CF-blocking buffer (Vector Laboratories Inc.) containing 1 mM CaCl2) and 1 mM MgCl2. The cells were then resuspended in 50 μl 0.5 μg/ml of 0.5 ng/ml biotinylated lectin in 1× carbo-free blocking buffer and incubated at 4-8° C. for 45-60 min. Cells were washed with 3×100 μl PBA (PBS containing 1% v/v FBS and 0.1% w/w sodium azide), incubated with 40 μl 1 μg/ml Streptavidin-phycoerythrin conjugate (Invitrogen, eBioscience) in PBA for 10-15 min at 4-8° C. Cells were then washed again with 3×100 μl PBA, resuspended in PBA and fluorescence was measured with a flow cytometer (Beckman & Dickinson FACS-Calibur). Each replicate for each condition with >10,000 gated events. Data was processed using FlowJo (FlowJo LLC). Percentage of lectin binding was obtained by normalizing the MFI values to the MFI values of the respective DMSO control.
(§3) Three cell lines (THP-1, Jurkat, EL4) were cultured for 3 days with 0-512 μM compound. The cells were stained with two fucose specific lectins (AAL & AOL) and analysed by flow cytometry, presented as mean percentage lectin binding normalized to control (n=3).

[2] = tested on: Jurkat cells; test: Lectin staining for fucose expression inhibition, Jurkat cells; conditions: 3 days, 0-512 μM compound, flow cytometry
Procedure: as §1, §2, §3

[3] = tested on: EL4 cells; test: Lectin staining for fucose expression inhibition, EL4 cells; conditions: 3 days, 0-512 μM compound, flow cytometry
Procedure: as §1, §2, §3

[4] = tested on: THP-1 cells; test: Lectin specificity: total cell surface glycosylation with additional lectins; conditions: 100 μM and 10 μM, three days; for LCA and PSA lectin binding: lectins restricted to α1,6-linked core fucosylation
Procedure: Protocol below was repeated until n>=3 for each compounds using cells at different passage numbers. Culture medium was prepared in 96-wells plates (Thermo Scientific). For every unnatural sugar derivative, 11 wells containing 100 μM of unnatural sugar derivatives and 11 wells containing 10 μM of the unnatural sugar derivatives were prepared. DMSO, at same dilution as the tested probes, was used as a positive control for lectin staining. THP-1 Cells were cultured in the plates (20,000 cells per well) and the cells were incubated for three days at 37° C. and 5% CO2. Cells were harvested and washed with 100 μl 1×CF-blocking buffer (Vector Laboratories Inc.) containing 1 mM CaCl2) and 1 mM MgCl2. The cells were then resuspended in 50 μl 0.5 μg/ml of either 0.5 ng/ml biotinylated AAL, AOL, SNA, MAL-II, WGA, LCA, PSA, PNA, PHA-L or GSL-1 lectin in 1× carbo-free blocking buffer or with 50 μl of non-supplemented 1× carbo-free blocking buffer and incubated at 4-8° C. for 45-60 min. Cells were washed with 3×100 μl PBA (PBS containing 1% v/v FBS and 0.1% w/w sodium azide), incubated with 40 μl 1 μg/ml Streptavidin-phycoerythrin conjugate (Invitrogen, eBioscience) in PBA for 10-15 min at 4-8° C. Cells were then washed again with 3×100 μl PBA, resuspended in PBA and fluorescence was measured with a flow cytometer (Beckman & Dickinson FACS-Calibur). Each replicate for each condition with >10,000 gated events. Data was processed using FlowJo (FlowJo LLC). Percentage of lectin binding was obtained by normalizing the MFI values to the MFI values of the respective DMSO control.
Compounds 9 & 10 are mannose-1-phosphate derivatives, so other glycosylation pathways such as mannosylation could be imagined to be affected. Having established the ability to inhibit cellular fucosylation with AAL and AOL lectins, the effect on total cell surface glycosylation was evaluated using additional lectins (FIG. 4A and FIG. 4B). N-glycans consist of a biantennary mannose containing backbone, recognized by WGA, and can be branched recognized by L-Pha. These branches can be terminated with galactose, recognized by PNA, or α2,6- and α2,3-linked sialic acids recognized by SNA and MAL-II, respectively. […] The decrease in binding for these lectins can thus be attributed to defucosylation as confirmed by a decrease in AAL and AOL binding and no effect on WGA binding.

[5] = tested on: THP-1 cells; test: Onset and recovery of inhibition; conditions: for inhibition at 100 µM: Homo sapiens, 72 h, read-out: inhibition of fucosylation after 3 days; for effect on lectin binding (FIG. 5): AAL or AOL lectin
Procedure: Cells were cultured in medium containing different concentrations of unnatural sugar derivatives on 96-wells plates (suspension cell lines; 13,000-20,000 cells per well) (Thermo Scientific). DMSO, at same dilution as the unnatural sugar derivative stock solutions, was used as a positive control for lectin staining; P-Fuc2F was used for all concentrations as negative control. Cells were incubated for eight days at 37° C. and 5% CO2 in a humidified incubator. Medium was changed after three and six days of incubation with cell culture medium without unnatural sugar derivatives. Every day cells were harvested and washed with 100 μl 1× CF-blocking buffer (Vector Laboratories Inc.) containing 1 mM CaCl2) and 1 mM MgCl2. The cells were then resuspended in 50 μl 0.5 μg/ml of either 0.5 ng/ml biotinylated AAL, AOL, SNA, MAL-II, WGA, LCA, PSA, PNA, PHA-L or GSL-1 lectin in 1× carbo-free blocking buffer or with 50 μl of non-supplemented 1× carbo-free blocking buffer and incubated at 4-8° C. for 45-60 min. Cells were washed with 3×100 μl PBA (PBS containing 1% v/v FBS and 0.1% w/w sodium azide), incubated with 40 μl 1 μg/ml Streptavidin-phycoerythrin conjugate (Invitrogen, eBioscience) in PBA for 10-15 min at 4-8° C. Cells were then washed again with 3×100 μl PBA, resuspended in PBA and fluorescence was measured with a flow cytometer (Beckman & Dickinson FACS-Calibur). Each replicate for each condition with >10,000 gated events. Data was processed using FlowJo (FlowJo LLC). Percentage of lectin binding was obtained by normalizing the MFI values to the MFI values of the respective DMSO control.
The onset of inhibition and duration for recovery was evaluated on THP-1 cells with 100 and 10 μM compound using the AAL lectin (FIG. 5). At 100 μM concentration compounds 9 and 10 inhibit fucosylation after 1 day and to over 50% after 3 days. Fucosylation was fully recovered to normal 5 levels on day 6. […] Similar results were obtained using the AOL lectin.

[6] = Homo sapiens, 72 h, AAL lectin, n=3, read-out: EC50 for fucose expression inhibition, THP-1 AAL
[7] = Homo sapiens, 72 h, AOL lectin, n=3, read-out: EC50 for fucose expression inhibition, THP-1 AOL
[8] = Homo sapiens, 72 h, AAL lectin, n=3, read-out: EC50 for fucose expression inhibition, Jurkat AAL
[9] = Homo sapiens, 72 h, AOL lectin, n=3, read-out: EC50 for fucose expression inhibition, Jurkat AOL
[10] = Mus musculus, 72 h, AAL lectin, n=3, read-out: EC50 for fucose expression inhibition, EL4 AAL
[11] = Mus musculus, 72 h, AOL lectin, n=3, read-out: EC50 for fucose expression inhibition, EL4 AOL

Row | SMILES | EC50 [1, 6] | EC50 [1, 7] | EC50 [2, 8] | EC50 [2, 9] | EC50 [3, 10] | EC50 [3, 11] | EC50 ([1]; AAL lectin, n=3, read-out: EC50 for fucose expression inhibition, THP-1 AAL) | EC50 ([1]; AOL lectin, n=3, read-out: EC50 for fucose expression inhibition, THP-1 AOL) | EC50 ([2]; AAL lectin, n=3, read-out: EC50 for fucose expression inhibition, Jurkat AAL) | EC50 ([2]; AOL lectin, n=3, read-out: EC50 for fucose expression inhibition, Jurkat AOL) | EC50 ([3]; AAL lectin, n=3, read-out: EC50 for fucose expression inhibition, EL4 AAL) | EC50 ([3]; AOL lectin, n=3, read-out: EC50 for fucose expression inhibition, EL4 AOL) | effect on binding of WGA, L-Pha, PNA, SNA and MAL-II lectins [4] | LCA and PSA lectin binding [4] | onset of fucosylation inhibition ([5]; 100 μM, AAL lectin) | inhibition at 100 µM ([5]; 100 μM, AAL lectin) | inhibition of fucosylation at 10 μM ([5]; 10 μM, AAL lectin) | effect on lectin binding (FIG. 5) ([5]; 10 μM) | effect on lectin binding (FIG. 5) ([5]; 100 μM)
1 | CC(=O)OC1C(OC(C)=O)[C@H](OC(C)=O)C(C(F)F)O[C@@H]1OP(=O)(OCCSC(C)=O)OCCSC(C)=O (stereo partly drawn) [P-D-Rha6F2-1P (9), Di-(S-acetyl-2-thioethyl)-(2,3,4-tri-O-acetyl-6,6-difluoro-α-D-rhamnopyranoside) phosphate] | 1.97 µM | 5.26 µM | 5.93 µM | 4.1 µM | 14.2 µM | 38.2 µM | – | – | – | – | – | – | No significant effect | decreased binding | 1 days | > 50% | – | – | –
2 | CC(=O)OC1C(OC(C)=O)[C@H](OC(C)=O)C(C(F)(F)F)O[C@@H]1OP(=O)(OCCSC(C)=O)OCCSC(C)=O (stereo partly drawn) [P-D-Rha6F3-1P (10), Di-(S-acetyl-2-thioethyl)-(2,3,4-tri-O-acetyl-6,6,6-trifluoro-α-D-mannopyranoside) phosphate] | 0.608 µM | 0.454 µM | 27.7 µM | 12.8 µM | > 500 µM | > 500 µM | – | – | – | – | – | – | No significant effect | decreased binding | 1 days | > 50% | – | – | –
3 | CC(=O)OCC1O[C@H](OP(=O)(OCCSC(C)=O)OCCSC(C)=O)C(OC(C)=O)C(OC(C)=O)[C@@H]1OC(C)=O (stereo partly drawn) [P-D-Man-1P (6), Di-(S-acetyl-2-thioethyl)-(2,3,4,6-tetra-O-acetyl-α-D-mannopyranoside) phosphate] | > 500 µM | > 500 µM | > 500 µM | > 500 µM | > 500 µM | > 500 µM | – | – | – | – | – | – | – | – | – | – | – | – | no effect

Second part, led by results:

Row | EC50 [1, 6] | EC50 [1, 7] | EC50 [2, 8] | EC50 [2, 9] | EC50 [3, 10] | EC50 [3, 11] | EC50 ([1]; AAL lectin, n=3, read-out: EC50 for fucose expression inhibition, THP-1 AAL) | EC50 ([1]; AOL lectin, n=3, read-out: EC50 for fucose expression inhibition, THP-1 AOL) | EC50 ([2]; AAL lectin, n=3, read-out: EC50 for fucose expression inhibition, Jurkat AAL) | EC50 ([2]; AOL lectin, n=3, read-out: EC50 for fucose expression inhibition, Jurkat AOL) | EC50 ([3]; AAL lectin, n=3, read-out: EC50 for fucose expression inhibition, EL4 AAL) | EC50 ([3]; AOL lectin, n=3, read-out: EC50 for fucose expression inhibition, EL4 AOL) | SMILES | effect on binding of WGA, L-Pha, PNA, SNA and MAL-II lectins [4] | LCA and PSA lectin binding [4] | onset of fucosylation inhibition ([5]; 100 μM, AAL lectin) | inhibition at 100 µM ([5]; 100 μM, AAL lectin) | inhibition of fucosylation at 10 μM ([5]; 10 μM, AAL lectin) | effect on lectin binding (FIG. 5) ([5]; 10 μM) | effect on lectin binding (FIG. 5) ([5]; 100 μM)
4 | 267 µM | 84.4 µM | 174 µM | 345 µM | > 500 µM | > 500 µM | – | – | – | – | – | – | CC(=O)OC1C(OC(C)=O)[C@H](OC(C)=O)C(CF)O[C@@H]1OP(=O)(OCCSC(C)=O)OCCSC(C)=O (stereo partly drawn) [P-D-Rha6F-1P (8), Di-(S-acetyl-2-thioethyl)-(2,3,4-tri-O-acetyl-6-fluoro-α-D-rhamnopyranoside) phosphate] | – | – | – | – | – | – | –
5 | – | – | – | – | – | – | 44.9 µM | 30.7 µM | 115 µM | 121 µM | > 500 µM | > 500 µM | CC(=O)OC1O[C@@H](C)[C@@H](OC(C)=O)[C@@H](OC(C)=O)[C@@H]1F (some centres unmarked) [P-Fuc2Feq, reference compound] | – | – | – | – | no inhibition | no longer discernible | –
6 | > 500 µM | 137 µM | > 500 µM | 153 µM | > 500 µM | > 500 µM | – | – | – | – | – | – | CC(=O)OC1C(OC(C)=O)[C@H](OC(C)=O)C(C)O[C@@H]1OP(=O)(OCCSC(C)=O)OCCSC(C)=O (stereo partly drawn) [P-D-Rha-1P (7), Di-(S-acetyl-2-thioethyl)-(2,3,4-tri-O-acetyl-α-D-rhamnopyranoside) phosphate] | – | – | – | – | – | – | –

Reference: patent US12606585B2, “Fluorinated hexoses” (Stichting Radboud Universiteit, priority 2020, dated 2026)
